PubChem BioAssay AID1259407 (Chemical Carcinogenesis Research Information System (CCRIS), 2018)
Activity calls are given as the source filed them. The rule behind the calls is not given here.

Tested on: CCRIS mutagenicity, Ames/micronucleus/aberration tests
Assay: CCRIS mutagenicity studies

In the case of OCC(CO)(CO)CO, the mutagenic call (Test System: AMES SALMONELLA TYPHIMURIUM, Strain/Indicator: TA98, Metabolic Activation: NONE, Method: PREINCUBATION) was “inactive; negative”, the mutagenic call (Test System: AMES SALMONELLA TYPHIMURIUM, Strain/Indicator: TA98, Metabolic Activation: RAT, LIVER, S-9, KC 500, Method: PREINCUBATION) was “inactive; negative” and the mutagenic call (Test System: AMES SALMONELLA TYPHIMURIUM, Strain/Indicator: TA98, Metabolic Activation: RAT, LIVER, S-9, SODIUM PHENOBARBITAL AND 5,6-BENZOFLAVONE, Method: PREINCUBATION) was “inactive; negative”. For the same molecule, the mutagenic call (Test System: AMES SALMONELLA TYPHIMURIUM, Strain/Indicator: TA100, Metabolic Activation: NONE, Method: PREINCUBATION) was “inactive; negative”, the mutagenic call (Test System: AMES SALMONELLA TYPHIMURIUM, Strain/Indicator: TA100, Metabolic Activation: RAT, LIVER, S-9, KC 500, Method: PREINCUBATION) was “inactive; negative” and the mutagenic call (Test System: AMES SALMONELLA TYPHIMURIUM, Strain/Indicator: TA100, Metabolic Activation: RAT, LIVER, S-9, SODIUM PHENOBARBITAL AND 5,6-BENZOFLAVONE, Method: PREINCUBATION) was “inactive; negative”. For the same molecule, the mutagenic call (Test System: AMES SALMONELLA TYPHIMURIUM, Strain/Indicator: TA102, Metabolic Activation: NONE, Method: PREINCUBATION) was “inactive; negative”, the mutagenic call (Test System: AMES SALMONELLA TYPHIMURIUM, Strain/Indicator: TA102, Metabolic Activation: RAT, LIVER, S-9, SODIUM PHENOBARBITAL AND 5,6-BENZOFLAVONE, Method: PREINCUBATION) was “inactive; negative” and the mutagenic call (Test System: AMES SALMONELLA TYPHIMURIUM, Strain/Indicator: TA104, Metabolic Activation: NONE, Method: PREINCUBATION) was “inactive; negative”. For the same molecule, the mutagenic call (Test System: AMES SALMONELLA TYPHIMURIUM, Strain/Indicator: TA104, Metabolic Activation: RAT, LIVER, S-9, SODIUM PHENOBARBITAL AND 5,6-BENZOFLAVONE, Method: PREINCUBATION) was “inactive; negative”, the mutagenic call (Test System: AMES SALMONELLA TYPHIMURIUM, Strain/Indicator: TA1535, Metabolic Activation: NONE, Method: PREINCUBATION) was “inactive; negative” and the mutagenic call (Test System: AMES SALMONELLA TYPHIMURIUM, Strain/Indicator: TA1535, Metabolic Activation: RAT, LIVER, S-9, KC 500, Method: PREINCUBATION) was “inactive; negative”. For the same molecule, the mutagenic call (Test System: AMES SALMONELLA TYPHIMURIUM, Strain/Indicator: TA1535, Metabolic Activation: RAT, LIVER, S-9, SODIUM PHENOBARBITAL AND 5,6-BENZOFLAVONE, Method: PREINCUBATION) was “inactive; negative”, the mutagenic call (Test System: AMES SALMONELLA TYPHIMURIUM, Strain/Indicator: TA1537, Metabolic Activation: NONE, Method: PREINCUBATION) was “inactive; negative” and the mutagenic call (Test System: AMES SALMONELLA TYPHIMURIUM, Strain/Indicator: TA1537, Metabolic Activation: RAT, LIVER, S-9, KC 500, Method: PREINCUBATION) was “inactive; negative”. For the same molecule, the mutagenic call (Test System: AMES SALMONELLA TYPHIMURIUM, Strain/Indicator: TA1537, Metabolic Activation: RAT, LIVER, S-9, SODIUM PHENOBARBITAL AND 5,6-BENZOFLAVONE, Method: PREINCUBATION) was “inactive; negative”, the mutagenic call (Test System: AMES SALMONELLA TYPHIMURIUM, Strain/Indicator: TA1538, Metabolic Activation: NONE, Method: PREINCUBATION) was “inactive; negative” and the mutagenic call (Test System: AMES SALMONELLA TYPHIMURIUM, Strain/Indicator: TA1538, Metabolic Activation: RAT, LIVER, S-9, KC 500, Method: PREINCUBATION) was “inactive; negative”. For the same molecule, the mutagenic call (Test System: E. COLI, Strain/Indicator: WP2UVRA/PKM101, Metabolic Activation: NONE, Method: PREINCUBATION) was “inactive; negative”, the mutagenic call (Test System: E. COLI, Strain/Indicator: WP2UVRA/PKM101, Metabolic Activation: RAT, LIVER, S-9, SODIUM PHENOBARBITAL AND 5,6-BENZOFLAVONE, Method: PREINCUBATION) was “inactive; negative” and the mutagenic call (Test System: E. COLI, Strain/Indicator: WP2UVRA, Metabolic Activation: NONE, Method: PREINCUBATION) was “inactive; negative”. The mutagenic call (Test System: E. COLI, Strain/Indicator: WP2 UVRA, Metabolic Activation: RAT, LIVER, S-9, KC 500, Method: PREINCUBATION) was “inactive; negative” and the mutagenic call (Test System: E. COLI, Strain/Indicator: WP2UVRA, Metabolic Activation: RAT, LIVER, S-9, SODIUM PHENOBARBITAL AND 5,6-BENZOFLAVONE, Method: PREINCUBATION) was “inactive; negative”.
For CCn1c(N)nc2c3cccnc3ccc21, the mutagenic call (Test System: AMES SALMONELLA TYPHIMURIUM, Strain/Indicator: TA98, Metabolic Activation: RAT, LIVER, S-9, AROCLOR 1254, Method: PREINCUBATION) was “active; positive”.
CC1(C)CC2=C(C=O)[C@]3(C=O)C[C@]3(C)[C@@H](O)[C@@H]2C1 was tested, and the mutagenic call (Test System: AMES SALMONELLA TYPHIMURIUM, Strain/Indicator: TA98, Metabolic Activation: NONE, Method: STANDARD PLATE) was “inactive; negative”, the mutagenic call (Test System: AMES SALMONELLA TYPHIMURIUM, Strain/Indicator: TA100, Metabolic Activation: NONE, Method: STANDARD PLATE) was “inactive; negative” and the mutagenic call (Test System: AMES SALMONELLA TYPHIMURIUM, Strain/Indicator: TA2637, Metabolic Activation: NONE, Method: STANDARD PLATE) was “inactive; negative”.
